Experimental data: ChEMBL document CHEMBL4715829, “Heterodimeric Rifampicin-Tobramycin conjugates break intrinsic resistance of Pseudomonas aeruginosa to doxycycline and chloramphenicol in vitro and in a Galleria mellonella in vivo model” (Eur J Med Chem, 2019)
In brackets after ≈: the same amount, converted by molar mass.

Tests used:
[1] = tested on: Stenotrophomonas maltophilia; experiment: Antibacterial activity against Stenotrophomonas maltophilia CAN-ICU 62584 assessed as reduction in bacterial growth incubated for 18 hrs by broth microdilution assay; format: functional
Pseudomonas aeruginosa [2] = experiment: Antibacterial activity against Pseudomonas aeruginosa PAO1 assessed as fractional inhibitory concentration index in presence of Novobiocin incubated for 18 hrs by broth microdilution assay based checkerboard assay; format: functional
Enterococcus faecium = experiment: Antibacterial activity against Enterococcus faecium ATCC 27270 assessed as reduction in bacterial growth incubated for 18 hrs by broth microdilution assay; format: functional
Pseudomonas aeruginosa [3] = experiment: Antibacterial activity against Pseudomonas aeruginosa PAO1 assessed as reduction in bacterial growth by measuring colistin MIC at <=10 uM in presence of colistin incubated for 18 hrs by broth microdilution assay based checkerboard assay (reference value: 1 microg/ml); format: functional; details: dose microM <=10
Klebsiella pneumoniae [4] = experiment: Antibacterial activity against Klebsiella pneumoniae ATCC 13883 assessed as reduction in bacterial growth incubated for 18 hrs by broth microdilution assay; format: functional
Pseudomonas aeruginosa [5] = experiment: Antibacterial activity against Pseudomonas aeruginosa PAO1 assessed as reduction in bacterial growth by measuring clindamycin MIC at <=10 uM in presence of clindamycin incubated for 18 hrs by broth microdilution assay based checkerboard assay (reference value: 1024 microg/ml); format: functional; details: dose microM <=10
Pseudomonas aeruginosa [6] = experiment: Antibacterial activity against Pseudomonas aeruginosa PAO1 assessed as fractional inhibitory concentration index in presence of Cefotaxime incubated for 18 hrs by broth microdilution assay based checkerboard assay; format: functional
Pseudomonas aeruginosa [7] = experiment: Antibacterial activity against Pseudomonas aeruginosa ATCC 27853 assessed as reduction in bacterial growth incubated for 18 hrs by broth microdilution assay; format: functional
Pseudomonas aeruginosa [8] = experiment: Antibacterial activity against Pseudomonas aeruginosa PAO1 assessed as reduction in bacterial growth by measuring moxifloxacin MIC at <=10 uM in presence of moxifloxacin incubated for 18 hrs by broth microdilution assay based checkerboard assay (reference value: 1 microg/ml); format: functional; details: dose microM <=10
Pseudomonas aeruginosa [9] = experiment: Antibacterial activity against gentamicin, tobramycin-resistant Pseudomonas aeruginosa CANWARD 96846 assessed as reduction in bacterial growth incubated for 18 hrs by broth microdilution assay; format: functional
Pseudomonas aeruginosa [10] = experiment: Antibacterial activity against Pseudomonas aeruginosa PAO1 assessed as reduction in bacterial growth by measuring chloramphenicol MIC at <=[…] uM in presence of chloramphenicol incubated for 18 hrs by broth microdilution assay based checkerboard assay (reference value: […] microg/ml); format: functional; details: dose microM <=10
Pseudomonas aeruginosa [11] = experiment: Antibacterial activity against Pseudomonas aeruginosa PAO1 assessed as reduction in bacterial growth by measuring cefotaxime MIC at <=[…] uM in presence of cefotaxime incubated for 18 hrs by broth microdilution assay based checkerboard assay (reference value: […] microg/ml); format: functional; details: dose microM <=10
Pseudomonas aeruginosa [12] = experiment: Antibacterial activity against Pseudomonas aeruginosa 101243 assessed as fractional inhibitory concentration index in presence of chloramphenicol incubated for 18 hrs by broth microdilution assay; format: functional
Pseudomonas aeruginosa [13] = experiment: Antibacterial activity against Pseudomonas aeruginosa 100036 assessed as fractional inhibitory concentration incubated for 18 hrs in presence of doxycycline by broth microdilution assay; format: functional
Pseudomonas aeruginosa [14] = experiment: Antibacterial activity against Pseudomonas aeruginosa 262-101856 assessed as fractional inhibitory concentration incubated for 18 hrs in presence of doxycycline by broth microdilution assay; format: functional
Pseudomonas aeruginosa [15] = experiment: Antibacterial activity against Pseudomonas aeruginosa 262-101856 assessed as fractional inhibitory concentration incubated for 18 hrs in presence of chloramphenicol by broth microdilution assay; format: functional
Pseudomonas aeruginosa [16] = experiment: Antibacterial activity against Pseudomonas aeruginosa 264-101354 assessed as fractional inhibitory concentration index in presence of chloramphenicol incubated for 18 hrs by broth microdilution assay; format: functional
Pseudomonas aeruginosa [17] = experiment: Antibacterial activity against Pseudomonas aeruginosa 100036 assessed as fractional inhibitory concentration index in presence of doxycycline incubated for 18 hrs by broth microdilution assay; format: functional
Pseudomonas aeruginosa [18] = experiment: Antibacterial activity against Pseudomonas aeruginosa 101243 assessed as fractional inhibitory concentration incubated for 18 hrs in presence of chloramphenicol by broth microdilution assay; format: functional
Pseudomonas aeruginosa [19] = experiment: Antibacterial activity against Pseudomonas aeruginosa 264-101354 assessed as fractional inhibitory concentration incubated for 18 hrs in presence of doxycycline by broth microdilution assay; format: functional
Pseudomonas aeruginosa [20] = experiment: Antibacterial activity against Pseudomonas aeruginosa 264-101354 assessed as fractional inhibitory concentration index in presence of doxycycline incubated for 18 hrs by broth microdilution assay; format: functional
Escherichia coli [21] = experiment: Antibacterial activity against Escherichia coli ATCC 25922 assessed as fractional inhibitory concentration index in presence of chloramphenicol incubated for 18 hrs by broth microdilution assay; format: functional
Klebsiella pneumoniae [22] = experiment: Antibacterial activity against Klebsiella pneumoniae ATCC 16381 assessed as fractional inhibitory concentration index in presence of doxycycline incubated for 18 hrs by broth microdilution assay; format: functional
Pseudomonas aeruginosa [23] = experiment: Antibacterial activity against Pseudomonas aeruginosa 114228 assessed as fractional inhibitory concentration index in presence of doxycycline incubated for 18 hrs by broth microdilution assay; format: functional
Escherichia coli [24] = experiment: Antibacterial activity against Escherichia coli ATCC 25922 assessed as fractional inhibitory concentration index in presence of doxycycline incubated for 18 hrs by broth microdilution assay; format: functional
Pseudomonas aeruginosa [25] = experiment: Potentiation of doxycycline-induced antibacterial activity against Pseudomonas aeruginosa 260-97103 incubated for 18 hrs in presence of doxycycline by broth microdilution assay; format: functional, organism-based; details: dose 1-32 µg/ml
Acinetobacter baumannii [26] = experiment: Antibacterial activity against Acinetobacter baumannii ATCC 17978 assessed as potentiation of doxycycline-induced antibacterial activity by measuring doxycycline MIC at 10 uM incubated for 18 hrs in presence of doxycycline by broth microdilution assay (reference value: 0.25 ug/ml); format: functional
Enterobacter cloacae [27] = experiment: Antibacterial activity against Enterobacter cloacae ATCC 117029 assessed as fractional inhibitory concentration index in presence of chloramphenicol incubated for 18 hrs by broth microdilution assay; format: functional
Enterobacter cloacae [28] = experiment: Antibacterial activity against Enterobacter cloacae ATCC 117029 assessed as potentiation of doxycycline-induced antibacterial activity by measuring doxycycline MIC at 10 uM incubated for 18 hrs in presence of doxycycline by broth microdilution assay (reference value: 64 ug/ml); format: functional
Escherichia coli [29] = experiment: Antibacterial activity against Escherichia coli ATCC 25922 assessed as potentiation of chloramphenicol-induced antibacterial activity by measuring chloramphenicol MIC at 10 uM incubated for 18 hrs in presence of chloramphenicol by broth microdilution assay (reference value: 2 ug/ml); format: functional
Klebsiella pneumoniae [30] = experiment: Antibacterial activity against Klebsiella pneumoniae ATCC 16381 assessed as fractional inhibitory concentration index in presence of chloramphenicol incubated for 18 hrs by broth microdilution assay; format: functional
Acinetobacter baumannii [31] = experiment: Antibacterial activity against Acinetobacter baumannii ATCC 17978 assessed as potentiation of chloramphenicol-induced antibacterial activity by measuring chloramphenicol MIC at 10 uM incubated for 18 hrs in presence of chloramphenicol by broth microdilution assay (reference value: 64 ug/ml); format: functional
Acinetobacter baumannii [32] = experiment: Antibacterial activity against Acinetobacter baumannii ATCC 17978 assessed as reduction in bacterial growth incubated for 18 hrs by broth microdilution assay; format: functional
Klebsiella pneumoniae [33] = experiment: Antibacterial activity against Klebsiella pneumoniae ATCC 16381 assessed as potentiation of chloramphenicol-induced antibacterial activity by measuring chloramphenicol MIC at 10 uM incubated for 18 hrs in presence of chloramphenicol by broth microdilution assay (reference value: 1024 ug/ml); format: functional

Structure (SMILES)	MIC [1]	fractional inhibitory concentration index (FICI) (Pseudomonas aeruginosa [2])	MIC (Enterococcus faecium)	MIC (Pseudomonas aeruginosa [3])	MIC (Klebsiella pneumoniae [4])	MIC (Pseudomonas aeruginosa [5])	fractional inhibitory concentration index (FICI) (Pseudomonas aeruginosa [6])	MIC (Pseudomonas aeruginosa [7])	MIC (Pseudomonas aeruginosa [8])	MIC (Pseudomonas aeruginosa [9])	MIC (Pseudomonas aeruginosa [10])	MIC (Pseudomonas aeruginosa [11])	fractional inhibitory concentration index (FICI) (Pseudomonas aeruginosa [12])	FIC (Pseudomonas aeruginosa [13])	FIC (Pseudomonas aeruginosa [14])	FIC (Pseudomonas aeruginosa [15])	fractional inhibitory concentration index (FICI) (Pseudomonas aeruginosa [16])	fractional inhibitory concentration index (FICI) (Pseudomonas aeruginosa [17])	FIC (Pseudomonas aeruginosa [18])	fractional inhibitory concentration index (FICI) (Pseudomonas aeruginosa [20])	other results
CO[C@H]1/C=C/O[C@@]2(C)Oc3c(C)c(O)c4c(O)c(c(/C=N/N5CCN(Cc6cn(CCCCO[C@@H]7[C@@H](O[C@H]8O[C@H](CO)[C@@H](O)[C@H](N)[C@H]8O)[C@H](N)C[C@H](N)[C@H]7O[C@H]7O[C@H](CN)[C@@H](O)C[C@H]7N)nn6)CC5)c(O)c4c3C2=O)NC(=O)/C(C)=C\C=C\[C@H](C)[C@H](O)[C@@H](C)[C@@H](O)[C@@H](C)[C@H](OC(C)=O)[C@@H]1C.O=C(O)C(F)(F)F.O=C(O)C(F)(F)F.O=C(O)C(F)(F)F.O=C(O)C(F)(F)F.O=C(O)C(F)(F)F	> 32 µg/mL	0.53	32 µg/mL	0.5 µg/mL	> 32 µg/mL	512 µg/mL	1.03	> 32 µg/mL	1 µg/mL	> 32 µg/mL	8 µg/mL	16 µg/mL	–	–	–	–	–	–	–	–	–
NC[C@H]1O[C@H](O[C@H]2[C@H](O)[C@@H](O[C@H]3O[C@H](CO)[C@@H](O)[C@H](N)[C@H]3O)[C@H](N)C[C@@H]2N)[C@H](N)C[C@@H]1O [TOBRAMYCIN]	> 512 µg/mL	–	16 µg/mL (≈ 34.2 µM)	–	≤ 0.25 µg/mL	–	–	1 µg/mL (≈ 2.14 µM)	–	256 µg/mL (≈ 548 µM)	–	–	1.5	0.5	<=0.5	<=0.5	1	1.5	0.5	1.5	FIC (Pseudomonas aeruginosa [19]): 0.5
CO[C@H]1/C=C/O[C@@]2(C)Oc3c(C)c(O)c4c(O)c(c(/C=N/N5CCN(Cc6cn(CCCCCCO[C@@H]7[C@@H](O[C@H]8O[C@H](CO)[C@@H](O)[C@H](N)[C@H]8O)[C@H](N)C[C@H](N)[C@H]7O[C@H]7O[C@H](CN)[C@@H](O)C[C@H]7N)nn6)CC5)c(O)c4c3C2=O)NC(=O)/C(C)=C\C=C\[C@H](C)[C@H](O)[C@@H](C)[C@@H](O)[C@@H](C)[C@H](OC(C)=O)[C@@H]1C.Cl.Cl.Cl.Cl.Cl	> 32 µg/mL	0.28	> 32 µg/mL	0.5 µg/mL	> 32 µg/mL	256 µg/mL	1.03	> 32 µg/mL	0.5 µg/mL	> 32 µg/mL	1 µg/mL	16 µg/mL	0.187	–	–	–	0.063	0.078	–	0.064	fractional inhibitory concentration index (FICI) (Escherichia coli [21]): 0.75; fractional inhibitory concentration index (FICI) (Klebsiella pneumoniae [22]): <0.516; fractional inhibitory concentration index (FICI) (Pseudomonas aeruginosa [23]): <0.156; fractional inhibitory concentration index (FICI) (Escherichia coli [24]): 0.5; Activity (Pseudomonas aeruginosa [25]): Dose-dependent effect; MIC (Acinetobacter baumannii [26]): 0.25 µg/mL; fractional inhibitory concentration index (FICI) (Enterobacter cloacae [27]): 0.375; MIC (Enterobacter cloacae [28]): 16 µg/mL; MIC (Escherichia coli [29]): 1 µg/mL; fractional inhibitory concentration index (FICI) (Klebsiella pneumoniae [30]): <0.375; MIC (Acinetobacter baumannii [31]): 32 µg/mL; MIC (Acinetobacter baumannii [32]): 64 µg/mL; MIC (Klebsiella pneumoniae [33]): 256 µg/mL
CO[C@H]1/C=C/O[C@@]2(C)Oc3c(C)c(O)c4c(O)c(c(/C=N/N5CCN(C)CC5)c(O)c4c3C2=O)NC(=O)/C(C)=C\C=C\[C@H](C)[C@H](O)[C@@H](C)[C@@H](O)[C@@H](C)[C@H](OC(C)=O)[C@@H]1C [RIFAMPIN]	32 µg/mL (≈ 38.9 µM)	–	≤ 0.25 µg/mL	–	16 µg/mL (≈ 19.4 µM)	–	–	32 µg/mL (≈ 38.9 µM)	–	32 µg/mL (≈ 38.9 µM)	–	–	1.5	0.25	0.5	0.5	1.5	–	0.5	–	FIC (Pseudomonas aeruginosa [19]): 0.25
CO[C@H]1/C=C/O[C@@]2(C)Oc3c(C)c(O)c4c(O)c(c(/C=N/N5CCN(Cc6cn(CCCCCCCCCCCCO[C@@H]7[C@@H](O[C@H]8O[C@H](CO)[C@@H](O)[C@H](N)[C@H]8O)[C@H](N)C[C@H](N)[C@H]7O[C@H]7O[C@H](CN)[C@@H](O)C[C@H]7N)nn6)CC5)c(O)c4c3C2=O)NC(=O)/C(C)=C\C=C\[C@H](C)[C@H](O)[C@@H](C)[C@@H](O)[C@@H](C)[C@H](OC(C)=O)[C@@H]1C.O=C(O)C(F)(F)F.O=C(O)C(F)(F)F.O=C(O)C(F)(F)F.O=C(O)C(F)(F)F.O=C(O)C(F)(F)F	> 32 µg/mL	0.28	> 32 µg/mL	0.25 µg/mL	> 32 µg/mL	256 µg/mL	1.03	> 32 µg/mL	1 µg/mL	> 32 µg/mL	2 µg/mL	16 µg/mL	0.125	–	–	–	0.063	0.07	–	0.078	fractional inhibitory concentration index (FICI) (Escherichia coli [21]): 0.625; fractional inhibitory concentration index (FICI) (Klebsiella pneumoniae [22]): <0.516; fractional inhibitory concentration index (FICI) (Pseudomonas aeruginosa [23]): <0.187; fractional inhibitory concentration index (FICI) (Escherichia coli [24]): 0.625; Activity (Pseudomonas aeruginosa [25]): Dose-dependent effect; MIC (Acinetobacter baumannii [26]): 0.25 µg/mL; fractional inhibitory concentration index (FICI) (Enterobacter cloacae [27]): 0.375; MIC (Enterobacter cloacae [28]): 32 µg/mL; MIC (Escherichia coli [29]): 1 µg/mL; fractional inhibitory concentration index (FICI) (Klebsiella pneumoniae [30]): <0.281; MIC (Acinetobacter baumannii [31]): 64 µg/mL; MIC (Acinetobacter baumannii [32]): 64 µg/mL; MIC (Klebsiella pneumoniae [33]): 256 µg/mL
